Target: human mGluR5 (Homo sapiens, UniProt P41594)
Conditions: read-out: human mGluR5 IC50
Description: The cells were loaded with a Ca2+-sensitive fluorescent dye (e.g., Fluo-4), and the plates were washed and placed in the FDSS instrument. Test compound was applied to cells 3 seconds after baseline readings were taken. Cells were incubated with the test compounds for 140 seconds and then stimulated with an EC20 concentration of an mGluR5 agonist (e.g., glutamate, 3,5-dihydroxyphenylglycine, or quisqualate); 60-80 seconds later an EC80 concentration of agonist was added and readings taken for an additional 40 seconds. Data were collected at 1 Hz. […] Concentration response curves were generated using a four parameter logistical equation.
The above described assay was operated in two modes. In the first mode (utilizing a triple add protocol), a range of concentrations of the present compounds were added to cells, followed by two single fixed concentrations of agonist (EC20 followed by EC80). If a compound acted as a potentiator, an EC50 value for potentiation of the EC20 response and a maximum extent of potentiation by the compound at this concentration of agonist was determined by non-linear curve fitting. If a compound acted as an antagonist, an IC50 value for antagonism of the EC80 response and a maximum extent of antagonism by the compound at this concentration of agonist was determined by non-linear curve fitting. In the second mode (utilizing a double add protocol), several fixed concentrations of the present compounds were added to various wells on a plate, followed by a range of concentrations of agonist for each concentration of present compound; the EC50 values for the agonist at each concentration of compound were determined by nonlinear curve fitting. A decrease in the EC50 value of the agonist with increasing concentrations of the present compounds (a leftward shift of the agonist concentration-response curve) is an indication of the degree of mGluR5 positive allosteric modulation at a given concentration of the present compound. An increase in the EC50 value of the agonist with increasing concentrations of the present compounds (a rightward shift of the agonist concentration response curve) is an indication of the degree of mGluR5 antagonism at a given concentration of the present compound. The second mode also indicates whether the present compounds also affect the maximum response to mGluR5 to agonists.
The mGluR5 activity was determined using the metabotropic glutamate receptor activity assays in human embryonic kidney cells as described herein. The mGluR5 activity data for some compounds are shown as the average of at least three experiments with the standard error in these cases. If no error is indicated for the mGluR5 activity, the values given represent the results from a single experiment or the average of two experiments.

Chain of human mGluR5 (P41594 21-1212): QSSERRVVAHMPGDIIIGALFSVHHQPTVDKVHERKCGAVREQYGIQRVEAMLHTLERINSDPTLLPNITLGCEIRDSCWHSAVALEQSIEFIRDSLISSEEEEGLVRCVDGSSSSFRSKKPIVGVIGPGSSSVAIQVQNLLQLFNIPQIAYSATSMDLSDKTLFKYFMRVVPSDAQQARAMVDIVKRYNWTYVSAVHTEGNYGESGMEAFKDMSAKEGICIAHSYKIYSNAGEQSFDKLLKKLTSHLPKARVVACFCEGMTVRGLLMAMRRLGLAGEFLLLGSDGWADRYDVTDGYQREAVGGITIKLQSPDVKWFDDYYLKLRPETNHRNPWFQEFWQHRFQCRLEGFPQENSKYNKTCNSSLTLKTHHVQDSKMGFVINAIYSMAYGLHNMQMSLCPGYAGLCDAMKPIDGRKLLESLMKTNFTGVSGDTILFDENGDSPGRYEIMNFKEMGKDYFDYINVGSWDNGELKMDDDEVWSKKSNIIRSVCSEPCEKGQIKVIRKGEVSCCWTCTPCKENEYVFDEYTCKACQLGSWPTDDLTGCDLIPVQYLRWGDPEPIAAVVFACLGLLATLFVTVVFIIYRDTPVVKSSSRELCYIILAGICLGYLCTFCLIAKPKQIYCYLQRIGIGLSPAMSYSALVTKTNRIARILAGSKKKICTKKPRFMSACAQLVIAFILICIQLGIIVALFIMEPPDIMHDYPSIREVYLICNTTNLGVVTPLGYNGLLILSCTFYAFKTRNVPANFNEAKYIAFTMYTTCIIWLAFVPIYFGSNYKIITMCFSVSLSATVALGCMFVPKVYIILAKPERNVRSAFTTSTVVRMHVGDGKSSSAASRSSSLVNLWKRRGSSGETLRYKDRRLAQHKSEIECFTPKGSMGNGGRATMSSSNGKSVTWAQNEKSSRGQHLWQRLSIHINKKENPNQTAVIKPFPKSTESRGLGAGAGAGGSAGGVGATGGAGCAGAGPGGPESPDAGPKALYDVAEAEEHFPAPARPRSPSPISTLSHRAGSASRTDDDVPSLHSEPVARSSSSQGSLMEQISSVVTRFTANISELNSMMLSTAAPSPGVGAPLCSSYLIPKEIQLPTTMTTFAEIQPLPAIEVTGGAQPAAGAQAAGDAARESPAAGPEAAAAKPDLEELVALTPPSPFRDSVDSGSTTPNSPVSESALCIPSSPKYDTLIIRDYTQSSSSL

Compound	IC50
Cc1cccc(NC(=O)c2cc(N(C)c3cncnc3)ccn2)n1	2150 nM
O=C(Nc1ccc(F)cn1)c1cc(Oc2cncnc2)ccn1	364 nM
O=C(Nc1cccc(Cl)n1)c1cc(Oc2cncnc2)ccn1	245 nM
Cc1nc(NC(=O)c2cc(Oc3cncnc3)ccn2)sc1F	943 nM

The remaining lines, values ahead:

IC50	Compound
201 nM	O=C(Nc1cc(F)ccn1)c1cc(Oc2cncnc2)ccn1
161 nM	O=C(Nc1cccc(F)n1)c1cc(Oc2cncnc2)ccn1
101 nM	Cc1csc(NC(=O)c2cc(Oc3cccnc3)ccn2)n1 [N-(4-methylthiazol-2-yl)-4-(pyridin-3-yloxy)picolinamide]
47 nM	Cc1cccc(NC(=O)c2cc(Oc3cncnc3)ccn2)n1 [N-(6-methylpyridin-2-yl)-4-(pyrimidin-5-yloxy)picolinamide]

Tested on: not given
Conditions: intravenous administration to rhesus monkeys; literature; cited from earlier work

Compound	clearance
Cc1nc(C#Cc2cccnc2)cs1 [MTEP, 3-[(2-methyl-1,3-thiazol-4-yl)ethynyl]pyridine]	efficiently cleared

Reference: US8598345B2 (priority 2009, dated 2013)
